Measured values: ChEMBL document CHEMBL4393664, “2,4-Disubstituted quinazolines targeting breast cancer cells via EGFR-PI3K” (Eur J Med Chem, 2019)
Active and inactive are the calls of the source. No cut-off for these calls is given here.

Key:
MDA-MB-231 [1] = assay: Cell cycle arrest in human MDA-MB-231 cells assessed as accumulation at G1 phase at 3 uM after 24 hrs by propidium iodide/RNase A staining-based flow cytometric analysis (reference value: 49.17%); type: functional
MDA-MB-231 [2] = assay: Induction of apoptosis in human MDA-MB-231 cells assessed as necrotic cells at 4 uM after 48 hrs by Annexin-V-FITC/propidium iodide staining based flow cytometry (reference value: 1.21%); type: functional
MDA-MB-231 [3] = assay: Cell cycle arrest in human MDA-MB-231 cells assessed as accumulation at G2 phase at 3 uM after 24 hrs by propidium iodide/RNase A staining-based flow cytometric analysis (reference value: 27.76%); type: functional
MCF7 [4] = assay: Cell cycle arrest in human MCF7 cells assessed as accumulation at G1 phase at 6 uM after 24 hrs by propidium iodide/RNase A staining-based flow cytometric analysis (reference value: 52.21%); type: functional
MCF7 [5] = assay: Induction of apoptosis in human MCF7 cells assessed as viable cells at 6 uM after 48 hrs by Annexin-V-FITC/propidium iodide staining based flow cytometry (reference value: 91.1%); type: functional; details: MCF7, 48 h, read-out: Activity
[6] = target: Epidermal growth factor receptor (Homo sapiens) (UniProt P00533); assay: Inhibition of EGFR in human MCF7 cells assessed as reduction in phosphorylated PI3K expression after 8 hrs by Western blot analysis; type: cell-based
MDA-MB-231 [7] = assay: Induction of apoptosis in human MDA-MB-231 cells assessed as early apoptotic cells at 2 uM after 48 hrs by Annexin-V-FITC/propidium iodide staining based flow cytometry (reference value: 4.33%); type: functional
MCF7 [8] = assay: Cell cycle arrest in human MCF7 cells assessed as accumulation at G1 phase at 12 uM after 24 hrs by propidium iodide/RNase A staining-based flow cytometric analysis (reference value: 52.21%); type: functional
[9] = target: Epidermal growth factor receptor (Homo sapiens) (UniProt P00533); assay: Inhibition of EGFR phosphorylation at Y992 residues in human MCF7 cells after 8 hrs by Western blot analysis; type: cell-based
MDA-MB-231 [10] = assay: Induction of apoptosis in human MDA-MB-231 cells assessed as early apoptotic cells at 4 uM after 48 hrs by Annexin-V-FITC/propidium iodide staining based flow cytometry (reference value: 4.33%); type: functional
MDA-MB-231 [11] = assay: Induction of apoptosis in human MDA-MB-231 cells assessed as necrotic cells at 2 uM after 48 hrs by Annexin-V-FITC/propidium iodide staining based flow cytometry (reference value: 1.21%); type: functional
MDA-MB-231 [12] = assay: Induction of apoptosis in human MDA-MB-231 cells assessed as increase in p53 expression at 3 to 12 uM after 48 hrs by Western blot analysis; type: functional, cell-based
MCF7 [13] = assay: Induction of apoptosis in human MCF7 cells assessed as increase in nuclear lysis up to 8 uM after 48 hrs by DAPI staining-based fluorescence microscopic method; type: functional, cell-based
MCF7 [14] = assay: Induction of apoptosis in human MCF7 cells assessed as downregulation of Bcl-2 protein expression at 3 to 12 uM after 48 hrs by Western blot analysis; type: functional, cell-based
MCF7 [15] = assay: Induction of apoptosis in human MCF7 cells assessed as increase in ROS generation up to 8 uM after 48 hrs by DHE dye-based fluorescence microscopic analysis; type: functional, cell-based
MCF7 [16] = assay: Induction of apoptosis in human MCF7 cells assessed as late apoptotic cells at 4uM after 48 hrs by Annexin-V-FITC/propidium iodide staining based flow cytometry (reference value: 4.28%); type: functional
[17] = target: Epidermal growth factor receptor (Homo sapiens) (UniProt P00533); assay: Inhibition of EGFR in human MCF7 cells assessed as reduction in phosphorylated AKT expression after 8 hrs by Western blot analysis; type: cell-based
MCF7 [18] = assay: Induction of apoptosis in human MCF7 cells assessed as increase in Bax expression levels at 3 to 12 uM after 48 hrs by Western blot analysis; type: functional, cell-based
MDA-MB-231 [19] = assay: Cell cycle arrest in human MDA-MB-231 cells assessed as accumulation at S phase at 6 uM after 24 hrs by propidium iodide/RNase A staining-based flow cytometric analysis (reference value: 23.07%); type: functional
MCF7 [20] = assay: Cytotoxicity against human MCF7 cells assessed as reduction in cell viability after 72 hrs by MTT assay; type: functional, cell-based; details: MCF7, 72 h
[21] = target: Epidermal growth factor receptor (Homo sapiens) (UniProt P00533); assay: Inhibition of EGFR phosphorylation at Y1068 residues in human MDA-MB-231 cells after 8 hrs by Western blot analysis; type: cell-based
MDA-MB-231 [22] = assay: Induction of apoptosis in human MDA-MB-231 cells assessed as viable cells at 2 uM after 48 hrs by Annexin-V-FITC/propidium iodide staining based flow cytometry (reference value: 92.1%); type: functional; details: MDA-MB-231, 48 h, read-out: Activity
MCF7 [23] = assay: Effect on total PI3K protein level in human MCF7 cells up to 12 uM after 8 hrs by Western blot analysis; type: ADME, cell-based; details: mcf7, 8 h
MDA-MB-231 [24] = assay: Cell cycle arrest in human MDA-MB-231 cells assessed as accumulation at G1 phase at 12 uM after 24 hrs by propidium iodide/RNase A staining-based flow cytometric analysis (reference value: 49.17%); type: functional
MDA-MB-231 [25] = assay: Induction of apoptosis in human MDA-MB-231 cells assessed as early apoptotic cells at 6 uM after 48 hrs by Annexin-V-FITC/propidium iodide staining based flow cytometry (reference value: 4.33%); type: functional
MCF7 [26] = assay: Antiproliferative activity against human MCF7 cells assessed as reduction in cell viability after 24 to 72 hrs by MTT assay; type: functional, cell-based
MCF7 [27] = assay: Induction of apoptosis in human MCF7 cells assessed as viable cells at 2 uM after 48 hrs by Annexin-V-FITC/propidium iodide staining based flow cytometry (reference value: 91.1%); type: functional; details: MCF7, 48 h, read-out: Activity
MDA-MB-231 [28] = assay: Cell cycle arrest in human MDA-MB-231 cells assessed as accumulation at S phase at 12 uM after 24 hrs by propidium iodide/RNase A staining-based flow cytometric analysis (reference value: 23.07%); type: functional
MCF7 [29] = assay: Cell cycle arrest in human MCF7 cells assessed as accumulation at G2 phase at 3 uM after 24 hrs by propidium iodide/RNase A staining-based flow cytometric analysis (reference value: 30.62%); type: functional
MCF7 [30] = assay: Induction of apoptosis in human MCF7 cells assessed as necrotic cells at 6 uM after 48 hrs by Annexin-V-FITC/propidium iodide staining based flow cytometry (reference value: 1.57%); type: functional
MGC-803 = assay: Cytotoxicity against human MGC803 cells assessed as reduction in cell viability after 72 hrs by MTT assay; type: functional, cell-based; details: MGC-803, 72 h
MCF7 [31] = assay: Effect on total AKT protein level in human MCF7 cells up to 12 uM after 8 hrs by Western blot analysis; type: ADME, cell-based; details: mcf7, 8 h
MDA-MB-231 [32] = assay: Induction of apoptosis in human MDA-MB-231 cells assessed as increase in nuclear lysis up to 8 uM after 48 hrs by DAPI staining-based fluorescence microscopic method; type: functional, cell-based
MCF7 [33] = assay: Induction of apoptosis in human MCF7 cells assessed as necrotic cells at 4 uM after 48 hrs by Annexin-V-FITC/propidium iodide staining based flow cytometry (reference value: 1.57%); type: functional
MDA-MB-231 [34] = assay: Induction of apoptosis in human MDA-MB-231 cells assessed as viable cells at 6 uM after 48 hrs by Annexin-V-FITC/propidium iodide staining based flow cytometry (reference value: 92.1%); type: functional; details: MDA-MB-231, 48 h, read-out: Activity

Epidermal growth factor receptor (Homo sapiens), sequence (P00533 whole entry): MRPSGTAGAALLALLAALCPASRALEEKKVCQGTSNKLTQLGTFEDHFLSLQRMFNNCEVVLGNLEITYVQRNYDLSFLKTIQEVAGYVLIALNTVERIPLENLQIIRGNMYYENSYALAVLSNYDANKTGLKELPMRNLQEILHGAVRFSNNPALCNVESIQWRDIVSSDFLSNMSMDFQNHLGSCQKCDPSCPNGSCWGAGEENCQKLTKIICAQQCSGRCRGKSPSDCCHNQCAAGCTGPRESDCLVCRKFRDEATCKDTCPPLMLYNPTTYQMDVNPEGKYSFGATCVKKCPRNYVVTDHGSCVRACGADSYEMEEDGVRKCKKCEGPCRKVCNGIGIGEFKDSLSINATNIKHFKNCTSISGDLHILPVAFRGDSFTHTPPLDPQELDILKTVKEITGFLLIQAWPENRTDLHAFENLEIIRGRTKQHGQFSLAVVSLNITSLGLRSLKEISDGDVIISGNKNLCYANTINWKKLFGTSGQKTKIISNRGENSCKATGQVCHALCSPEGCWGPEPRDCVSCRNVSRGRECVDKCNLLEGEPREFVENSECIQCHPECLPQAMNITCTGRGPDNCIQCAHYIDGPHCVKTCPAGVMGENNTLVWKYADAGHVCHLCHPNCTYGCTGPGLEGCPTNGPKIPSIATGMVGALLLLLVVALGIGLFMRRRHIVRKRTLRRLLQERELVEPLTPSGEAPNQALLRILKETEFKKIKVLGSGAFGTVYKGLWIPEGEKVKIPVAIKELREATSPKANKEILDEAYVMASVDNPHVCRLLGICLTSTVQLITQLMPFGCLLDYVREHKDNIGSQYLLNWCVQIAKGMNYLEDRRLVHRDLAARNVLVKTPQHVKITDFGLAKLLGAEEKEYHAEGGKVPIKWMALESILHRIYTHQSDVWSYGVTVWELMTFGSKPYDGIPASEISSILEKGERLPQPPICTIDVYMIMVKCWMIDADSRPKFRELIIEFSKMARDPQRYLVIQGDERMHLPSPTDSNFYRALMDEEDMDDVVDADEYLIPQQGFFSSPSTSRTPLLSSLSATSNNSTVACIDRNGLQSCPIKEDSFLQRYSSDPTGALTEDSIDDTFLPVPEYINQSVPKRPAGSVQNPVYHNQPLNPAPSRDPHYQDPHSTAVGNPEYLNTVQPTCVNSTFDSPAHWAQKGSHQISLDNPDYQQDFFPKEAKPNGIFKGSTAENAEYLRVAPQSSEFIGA

For `FC(F)(F)c1ccc(CSc2nc(Nc3ccc(C(F)(F)F)cc3)c3ccccc3n2)cc1`, which Activity (MDA-MB-231 [1]) is on record?
The Activity was 53%.

What about the Activity (MDA-MB-231 [2]) of the same molecule?
Its Activity is 3.06%.

What about the Activity (MDA-MB-231 [3]) of the same molecule?
The Activity was 28.04%.

What about the Activity (MCF7 [4]) of the same molecule?
Its Activity is 65.05%.

What about the viability at 6 µM (MCF7 [5]) of the same molecule?
The viability at 6 µM was 70.5%.

And the inhibition [6]?
Its inhibition is “Dose-dependent effect”.

And the Activity (MDA-MB-231 [7])?
Its Activity is 6.56%.

What about the Activity (MCF7 [8]) of the same molecule?
Its Activity is 75.03%.

What about the inhibition [9] of the same molecule?
The inhibition was “Dose-dependent effect”.

What about the Activity (MDA-MB-231 [10]) of the same molecule?
Its Activity is 10.6%.

And the Activity (MDA-MB-231 [11])?
The Activity was 2.6%.

And the Activity (MDA-MB-231 [12])?
The Activity was “Active”.

And the Activity (MCF7 [13])?
Its Activity is “Active”.

What about the Activity (MCF7 [14]) of the same molecule?
Its Activity is “Active”.

What about the Activity (MCF7 [15]) of the same molecule?
Its Activity is “Active”.

And the Activity (MCF7 [16])?
Its Activity is 7.49%.

And the inhibition [17]?
Its inhibition is “Dose-dependent effect”.

And the Activity (MCF7 [18])?
The Activity was “Active”.

And the Activity (MDA-MB-231 [19])?
The Activity was 17.32%.

And the IC50 (MCF7 [20])?
The IC50 was 5.1 µM.

And the inhibition [21]?
Its inhibition is “Dose-dependent effect”.

And the viability at 2 µM (MDA-MB-231 [22])?
Its viability at 2 µM is 82.9%.

And the Activity (MCF7 [23])?
Its Activity is “Non-Toxic”.

And the Activity (MDA-MB-231 [24])?
The Activity was 69.54%.

What about the Activity (MDA-MB-231 [25]) of the same molecule?
Its Activity is 10.4%.

What about the Activity (MCF7 [26]) of the same molecule?
The Activity was “Dose-dependent effect”.

What about the viability at 2 µM (MCF7 [27]) of the same molecule?
The viability at 2 µM was 81.1%.

And the Activity (MDA-MB-231 [28])?
Its Activity is 18.77%.

What about the Activity (MCF7 [29]) of the same molecule?
The Activity was 20.38%.

And the Activity (MCF7 [30])?
Its Activity is 1.8%.

What about the IC50 (MGC-803) of the same molecule?
The IC50 was 6.17 µM.

What about the Activity (MCF7 [31]) of the same molecule?
Its Activity is “Non-Toxic”.

What about the Activity (MDA-MB-231 [32]) of the same molecule?
The Activity was “Active”.

And the Activity (MCF7 [33])?
The Activity was 1.28%.

And the viability at 6 µM (MDA-MB-231 [34])?
Its viability at 6 µM is 66.5%.
